From article PMC2994747, “Molecular Characterization of c-Abl/c-Src Kinase Inhibitors Targeted against Murine Tumour Progenitor Cells that Express Stem Cell Markers” (PLoS ONE, 2010)

Legend:
c-Src = target: T1, c-Src (Homo sapiens, UniProt P12931); assay: Src filter-binding kinase assay (Src Assay Kit); type: biochemical
T1 construct: His tag; purchased Upstate (Lake Placid, NY, USA)
Description: Baculovirus-produced recombinant purified his-tagged active against human Src and Abl were purchased from Upstate (Lake Placid, NY, USA).
Src activity was measured in a filter-binding assay using the Src Assay Kit (Upstate, Lake Placid, NY, USA), according to the manufacturer's protocol, using the specific Src peptide substrate [[…]] in the presence of 0.125 pmol of Src and 0.160 pmol of [γ-^32P]ATP. Abl activity was measured in a filter-binding assay using an Abl specific peptide substrate (Abtide, Upstate). Reaction conditions were (in a final volume of 10 µl): 25 mM Tris-HCl pH 7.5, 1 mM DTT, 0.012 µM [γ-^32P]ATP, 0.022 µM c-Abl. Reactions were incubated 10 min at 30°C.The samples (9 µl) were spotted on paper cellulose filters which were washed according to the manufacturer's protocol. Filter-bound radioactivity was measured by liquid scintillation with a Microbeta-Trilux apparatus (PerkinElmer, Waltham, MA, USA).
The ID50 were converted to Ki according to a competitive mechanism with respect to the substrate ATP. […] Since (i) the ATP concentration was limiting, i.e., [ATP], Km(ATP), and (ii) the enzyme concentration was not negligible with respect to the ATP concentration, the classical Cheng-Prusoff relationship was not applicable. Consequently, Ki values were calculated according to [drawing 3] (2) where S0 is the concentration of the competing substrate (ATP) and E0 is the concentration of the enzyme. Each experiment was done in triplicate and mean values were used for the interpolation. Curve fitting was performed with the program GraphPad Prism.

tumour cell lines = assay: Cell cycle analysis, statements over the cell line panel; type: cell-based; settings: IC50 concentration, 96 h
Description: CycleTEST™ PLUS DNA Reagent Kit (Becton Dickinson GmbH, Heidelberg, Germany) for cell cycle analysis was used, according to the instructions of the manufacturer. Briefly, the cells were harvested with trypsin, washed with PBS, and resuspended in CycleTEST Buffer. The cells were centrifuged and resuspended in solution A. After incubation for 10 min at room temperature, solution B was added and incubated. After adding solution C, the samples were incubated at 4°C protected from light. The samples were stored on ice and protected from light until analysis by FACScan flow cytometer (Becton Dickinson GmbH, Heidelberg, Germany).

HepG2 = assay: Western blot, semi-quantitative protein expression; type: cell-based, human
Description: For the Western Blot analysis, cells were rinsed and lysed as previously described. An amount of 25 µg protein was used for SDS-PAGE. Antibodies for c-Abl (sc-131), Actin (sc-1616), Cdc2-p34 (sc-8395), EPS15 (sc-1840), FAK (sc-558), c-Fos (sc-52), p38 (sc-7972), p53 (sc-6243) and STAT5 (sc-835x) were obtained from Santa Cruz (Santa Cruz Biotechnology, Heidelberg, Germany), while c-Src (2109) and phospho-Src Y416 (2101) were purchased from Cell Signaling (Cell Signaling Technology, Frankfurt a. M., Germany). The EGFR (06-847), phospho-EGFR Y992 (07-821) and phospho-EGFR Y1045 (04-284) stem from Upstate (Upstate, Schwalbach, Germany) and the hnRNP-K (A300-676A) from Bethyl Labs (Bethyl Laboratories, Montgomery, Texas, USA). Finally p73 (IMG-246) was supplied by Imgenex (Imgenex, Hamburg, Germany). Depending on the primary antibody the secondary antibodies were either horseradish peroxidase-conjugated anti-mouse (AP 160P), anti-rabbit (AP 132P) or anti-sheep (AP 147P) (Chemicon, Schwalbach, Germany).
Semi-quantitative analysis were carried out with Kodak 1D Image Analysis Software in reference to the vehicle treated control cells (see supplementary table S7).

[1] = system: murine and human cell lines; assay: Whole genome expression analysis, statements over several cell lines; type: cell-based
Description: The cells were harvested and RNA was isolated using RNeasy Mini Kit (Qiagen, Hilden, Germany) according to the instructions of the manufacturer. The isolated RNA (250 ng) was processed further using standard protocols as described recently with the exception of the 3′ IVT Express Kit (Affymetrix, High Wycombe, UK) that was utilized according to instructions. Quality control of cRNA was done with the Agilent 2100 Bioanalyzer (Agilent Tech according to manufacturer's protocols. Following fragmentation, cRNA of each sample was hybridized to Affymetrix GeneChip® Mouse Genome 430 2.0 or Human Genome U133 Plus 2.0 and scanned with an Affymetrix 3000 7G scanner.
The resultant data was normalized by Probe Logarithmic Intensity Error Estimation (PLIER) algorithm. Statistical analysis was carried out with the ArrayTrack software (National Center for Toxicological Research/FDA, Jefferson, AR, USA) using SAM algorithm.

[2] = system: murine and human tumour cell lines; assay: MTS cell viability assay, statements over the cell line panel; type: cell-based; settings: 96 h; cell line not stated at b77; read-out: IC50 (MTS) after 96 h of treatment
Description: Three human and eleven murine cancer cell lines were used. The human NSCLC cell line A549 (ACC 107) and the human colorectal carcinoma cell line CaCo2 (ACC 169) were obtained from Deutsche Sammlung von Mikroorganismen und Zellkulturen (DSMZ, Braunschweig, Germany). The human hepatocellular carcinoma cell line HepG2 (HB-8065) was obtained from American Type Culture Collection (Manassas, VA, USA). The 11 murine NSCLC cell lines were established as described recently. Cells were grown in monolayer cultures in DMEM containing 10% foetal calf serum, 4 mmol/l L-glutamine and 2% Penicillin/Streptomycin at 37°C in a humidified atmosphere of 95% air and 5% CO2.
Cell culture viability was monitored by CellTiter96® AQueous One Solution Cell Proliferation Assay (Promega GmbH, Mannheim, Germany). The cells were seeded in triplicates in 96-well microtitre plates and treated with the dual kinase inhibitors or vehicle (0.2% DMSO). After 24 h or 96 h of treatment the MTS tetrazolium reagent was added to the cells and incubated for 1 h. Absorbance at 490 nm was assayed with a Victor3 Wallac 1420 Multilabel counter (PerkinElmer, Waltham, MA, USA).

GammaA3 = assay: Caspase-Glo 3/7 activity assay; type: cell-based, mouse; settings: IC50 concentration
Description: (§1) According to instructions, Caspase-Glo® 3/7 assay (Promega GmbH, Mannheim, Germany) was used for monitoring caspase activity. Briefly, the same volume Caspase-Glo reagent as culture medium was added and incubated 1 h at room temperature. Luminescence was read with a Victor3 Wallac 1420 Multilabel counter (PerkinElmer, Rodgau, Germany). Background absorbance (medium only) was subtracted and the data given as percent of vehicle controls.

BetaD5 = assay: Caspase-Glo 3/7 activity assay; type: cell-based, mouse; settings: IC50 concentration, 24 h, vs vehicle
Description: as §1

T1 sequence (P12931 whole entry): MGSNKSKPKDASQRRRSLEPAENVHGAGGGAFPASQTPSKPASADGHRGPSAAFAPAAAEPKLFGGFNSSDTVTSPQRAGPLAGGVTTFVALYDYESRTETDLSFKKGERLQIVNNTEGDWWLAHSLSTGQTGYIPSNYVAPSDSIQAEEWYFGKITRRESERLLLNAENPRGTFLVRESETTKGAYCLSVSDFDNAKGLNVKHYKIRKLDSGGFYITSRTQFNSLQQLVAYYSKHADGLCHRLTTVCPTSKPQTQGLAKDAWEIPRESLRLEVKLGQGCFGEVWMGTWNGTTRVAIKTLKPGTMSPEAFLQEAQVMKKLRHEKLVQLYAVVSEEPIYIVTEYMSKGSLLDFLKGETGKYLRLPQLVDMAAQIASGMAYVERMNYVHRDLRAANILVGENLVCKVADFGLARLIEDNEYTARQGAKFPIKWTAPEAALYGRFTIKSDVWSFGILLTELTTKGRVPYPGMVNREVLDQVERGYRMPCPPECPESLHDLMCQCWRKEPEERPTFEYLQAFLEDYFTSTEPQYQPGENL

Compound | Actin protein expression (HepG2) | Cdc2-p34 protein expression (HepG2) | EGFR Y992-p protein expression (HepG2) | EGFR Y1045-p protein expression (HepG2) | EGFR protein expression (HepG2) | EPS15 protein expression (HepG2) | FAK protein expression (HepG2) | STAT5 protein expression (HepG2) | c-Abl protein expression (HepG2) | c-Fos protein expression (HepG2) | c-Src Y416-p protein expression (HepG2) | c-Src protein expression (HepG2) | hnRNP-K protein expression (HepG2) | p38 protein expression (HepG2) | p53 protein expression (HepG2) | further results
Fc1ccccc1CNc1ncnc2c1cnn2CC(Cl)c1ccc(Br)cc1 (centres unmarked) [Si162] | 77 | 12 | 20 | 60 | 535 | 56 | 96 | 35 | 46 | 58 | 82 | 86 | 59 | 48 | 73 | Ki (c-Src; isolated Src, calculated from ID50, ATP-competitive, E0 0.005, S0 0.012 µM): 0.042 µM; Cell cycle arrest (phase, in words) (tumour cell lines): arrest in G2/M; Commonly regulated genes in both murine cell lines (number) ([1]; A2C12 and GammaA3, Fig. 4D): 259; Genes regulated in common amongst all three human cell lines (number) ([1]; A549, CaCo2, HepG2, Fig. 4B): two
Clc1cccc(Nc2nc(SC3CCCC3)nc3c2cnn3CC(Cl)c2ccccc2)c1 (centres unmarked) [Si135] | 68 | 9 | 8 | 28 | 261 | 48 | 130 | 61 | 34 | 43 | 16 | 78 | 70 | 51 | 19 | IC50 [2]: 2.7 µM; Increase in caspase-3/7 activity (GammaA3; 24 h, vs vehicle): 10 fold; Increase in caspase-3/7 activity (GammaA3; 96 h): about 30 % of control; Inhibition of c-Src kinase activity (c-Src): no inhibition; Genes regulated in common in A549 and CaCo2 (number) ([1]; Fig. 4A): 13; Significantly regulated genes (number) ([1]; IC50 concentration, 96 h, cell line not stated): approx. 150; Increase in caspase-3/7 activity (BetaD5): 10 fold
